# In ChEMBL document CHEMBL1140078 (J Med Chem, 2008):
# Columns and labels:
# [1] = Aqueous solubility at pH 7.4 by turbidimetric assay; format: physicochemical
# [2] = in vivo; settings: CD1, mouse, po, 10 mg/kg
# [3] = in vivo; settings: rat, po, 10 mg/kg
# [4] = in vitro; settings: CD1, mouse, liver microsomes
# Description: Metabolic stability in CD1 mouse liver microsomes at 10 uM after 30 mins
# [5] = in vitro; settings: human, liver microsomes
# Description: Metabolic stability in human liver microsomes at 10 uM after 30 mins
# [6] = target: Phosphatidylinositol 4,5-bisphosphate 3-kinase catalytic subunit alpha isoform (Homo sapiens, UniProt P42336)
# Phosphatidylinositol 4,5-bisphosphate 3-kinase catalytic subunit alpha isoform, sequence (P42336 whole entry, canonical isoform): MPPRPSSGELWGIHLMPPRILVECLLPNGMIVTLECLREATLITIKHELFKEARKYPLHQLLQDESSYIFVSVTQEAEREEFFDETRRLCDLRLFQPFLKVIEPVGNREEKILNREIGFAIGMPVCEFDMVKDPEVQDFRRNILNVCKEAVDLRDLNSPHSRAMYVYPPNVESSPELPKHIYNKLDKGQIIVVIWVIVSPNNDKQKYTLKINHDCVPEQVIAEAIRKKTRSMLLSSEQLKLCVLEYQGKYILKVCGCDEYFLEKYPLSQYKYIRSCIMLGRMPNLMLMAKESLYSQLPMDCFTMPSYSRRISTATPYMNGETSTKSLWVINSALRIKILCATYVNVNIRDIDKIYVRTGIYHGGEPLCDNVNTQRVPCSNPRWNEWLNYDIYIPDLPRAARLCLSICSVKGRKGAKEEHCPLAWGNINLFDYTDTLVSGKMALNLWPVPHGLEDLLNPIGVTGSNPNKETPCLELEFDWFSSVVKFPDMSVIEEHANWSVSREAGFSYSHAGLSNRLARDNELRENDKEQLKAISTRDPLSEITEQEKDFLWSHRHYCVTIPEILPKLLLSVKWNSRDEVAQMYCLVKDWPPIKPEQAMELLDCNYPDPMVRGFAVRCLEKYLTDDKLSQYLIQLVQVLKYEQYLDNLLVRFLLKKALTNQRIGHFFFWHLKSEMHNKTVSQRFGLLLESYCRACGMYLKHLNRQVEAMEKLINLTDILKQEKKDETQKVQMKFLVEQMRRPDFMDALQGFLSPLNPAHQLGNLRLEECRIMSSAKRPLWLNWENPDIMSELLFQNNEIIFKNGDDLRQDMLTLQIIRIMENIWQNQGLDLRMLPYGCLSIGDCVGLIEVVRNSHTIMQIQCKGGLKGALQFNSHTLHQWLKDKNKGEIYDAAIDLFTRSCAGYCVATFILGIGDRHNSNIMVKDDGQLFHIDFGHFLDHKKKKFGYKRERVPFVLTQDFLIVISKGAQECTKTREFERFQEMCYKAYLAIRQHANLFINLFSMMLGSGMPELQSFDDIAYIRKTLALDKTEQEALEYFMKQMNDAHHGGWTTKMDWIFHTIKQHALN
# Description: Inhibition of human recombinant PI3K p110alpha expressed in Sf9 cells coexpressing p85alpha by radiometric scintillation proximity assay
smiles,measurement,setting,value
CN1CCN(Cc2cc3nc(-c4cccc(O)c4)nc(N4CCOCC4)c3s2)CC1,solubility kinetic,[1],> 100 µM
same,bioavailability,[2],10%
same,bioavailability,[3],2%
same,"remaining at 0.5 h, 10 µM",[4],85%
same,"remaining at 0.5 h, 10 µM",[5],85%
OCCN1CCN(Cc2cc3nc(-c4cccc(O)c4)nc(N4CCOCC4)c3s2)CC1,solubility kinetic,[1],> 100 µM
same,bioavailability,[2],7%
same,bioavailability,[3],0%
same,"remaining at 0.5 h, 10 µM",[4],90%
same,"remaining at 0.5 h, 10 µM",[5],90%
Cc1cc2nc(-c3cccc(O)c3)nc(N3CCOCC3)c2s1,"remaining at 0.5 h, 10 µM",[4],64%
Oc1cccc(-c2nc(N3CCOCC3)c3sccc3n2)c1,"remaining at 0.5 h, 10 µM",[4],25%
same,"remaining at 0.5 h, 10 µM",[5],32%
Cc1csc2c(N3CCOCC3)nc(-c3cccc(O)c3)nc12,IC50,[6],21 nM
same,"remaining at 0.5 h, 10 µM",[4],5%
same,"remaining at 0.5 h, 10 µM",[5],51%
c1cc2nc(-c3ccc4cn[nH]c4c3)nc(N3CCOCC3)c2s1,IC50,[6],2450 nM
CN1CCN(Cc2cc3nc(-c4cccc5[nH]ncc45)nc(N4CCOCC4)c3s2)CC1,bioavailability,[2],31%
same,bioavailability,[3],37%
same,"remaining at 0.5 h, 10 µM",[4],81%
same,"remaining at 0.5 h, 10 µM",[5],81%
CN(C)Cc1cc2nc(-c3cccc(O)c3)nc(N3CCOCC3)c2s1,bioavailability,[2],11%
same,"remaining at 0.5 h, 10 µM",[4],32%
same,"remaining at 0.5 h, 10 µM",[5],74%
COCCN(C)Cc1cc2nc(-c3cccc(O)c3)nc(N3CCOCC3)c2s1,solubility kinetic,[1],> 100 µM
same,"remaining at 0.5 h, 10 µM",[4],13%
same,"remaining at 0.5 h, 10 µM",[5],57%
